Test [1] has as its target PI3-kinase p110-alpha/p85-alpha (Homo sapiens, UniProt P42336). The test is described as follows: Inhibition of N-terminal His6-tagged recombinant full-length human p110alpha/untagged recombinant full length human p85alpha expressed in baculovirus infected Sf21 cells using phosphatidylinositol as substrate in presence of gamma-32P-ATP after 5 mins by thin layer chromatographic method.

The nature of test [2]: Antiproliferative activity against Balb/c mouse splenic B cells preincubated for 30 mins followed by LPS or F(ab')2 donkey anti-mouse IgM and recombinant mouse IL4 stimulation measured after 72 hrs by Alamar Blue reduction assay. It counts as functional, cell-based.
Test [3] deals with Phosphatidylinositol 4,5-bisphosphate 3-kinase catalytic subunit gamma isoform (Homo sapiens, UniProt P48736). The test is described as follows: Inhibition of recombinant human C-terminal His6-tagged p110gamma expressed in insect cells using phosphatidylinositol as substrate in presence of gamma-32P-ATP after 5 mins by thin layer chromatographic method.
Phosphatidylinositol 4,5-bisphosphate 3-kinase catalytic subunit gamma isoform, sequence (P48736 whole entry, canonical isoform): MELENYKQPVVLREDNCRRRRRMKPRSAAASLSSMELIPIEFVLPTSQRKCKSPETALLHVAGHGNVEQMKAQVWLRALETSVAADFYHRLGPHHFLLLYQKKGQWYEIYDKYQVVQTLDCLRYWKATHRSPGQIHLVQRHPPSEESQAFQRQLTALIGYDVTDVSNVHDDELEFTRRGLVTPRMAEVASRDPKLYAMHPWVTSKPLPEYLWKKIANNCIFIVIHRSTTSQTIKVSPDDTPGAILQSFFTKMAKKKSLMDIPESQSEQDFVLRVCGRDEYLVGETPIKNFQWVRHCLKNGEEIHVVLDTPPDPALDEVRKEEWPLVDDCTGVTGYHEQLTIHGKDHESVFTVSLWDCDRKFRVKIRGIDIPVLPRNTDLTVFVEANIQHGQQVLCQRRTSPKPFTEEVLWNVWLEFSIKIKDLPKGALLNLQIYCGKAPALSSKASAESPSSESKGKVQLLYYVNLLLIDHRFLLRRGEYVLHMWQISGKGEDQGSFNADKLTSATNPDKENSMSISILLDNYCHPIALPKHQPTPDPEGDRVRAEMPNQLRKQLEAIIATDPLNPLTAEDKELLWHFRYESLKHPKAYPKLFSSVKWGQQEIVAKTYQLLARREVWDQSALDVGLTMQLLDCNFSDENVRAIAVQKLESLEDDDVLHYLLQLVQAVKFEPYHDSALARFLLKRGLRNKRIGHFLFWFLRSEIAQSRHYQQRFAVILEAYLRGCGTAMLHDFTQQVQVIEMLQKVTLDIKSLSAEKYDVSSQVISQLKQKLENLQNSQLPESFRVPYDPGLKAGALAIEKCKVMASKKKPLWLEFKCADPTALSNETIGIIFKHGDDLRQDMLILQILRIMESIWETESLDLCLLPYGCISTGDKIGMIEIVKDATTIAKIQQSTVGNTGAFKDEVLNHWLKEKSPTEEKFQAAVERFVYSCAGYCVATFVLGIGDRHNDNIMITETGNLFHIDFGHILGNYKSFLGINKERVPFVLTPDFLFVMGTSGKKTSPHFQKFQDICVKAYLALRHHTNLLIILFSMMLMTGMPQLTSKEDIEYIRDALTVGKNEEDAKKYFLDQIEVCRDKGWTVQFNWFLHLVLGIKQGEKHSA
In test [4] the target is PI3-kinase p110-delta/p85-alpha (Homo sapiens, UniProt O00329). The test can be described thus: Inhibition of N-terminal His6-tagged recombinant full-length human p110delta/untagged recombinant full length p85alpha expressed in baculovirus infected Sf21 cells using phosphatidylinositol as substrate in presence of gamma-32P-ATP after 5 mins by thin layer chromatographic method.
PI3-kinase p110-delta/p85-alpha, sequence (P27986 whole entry): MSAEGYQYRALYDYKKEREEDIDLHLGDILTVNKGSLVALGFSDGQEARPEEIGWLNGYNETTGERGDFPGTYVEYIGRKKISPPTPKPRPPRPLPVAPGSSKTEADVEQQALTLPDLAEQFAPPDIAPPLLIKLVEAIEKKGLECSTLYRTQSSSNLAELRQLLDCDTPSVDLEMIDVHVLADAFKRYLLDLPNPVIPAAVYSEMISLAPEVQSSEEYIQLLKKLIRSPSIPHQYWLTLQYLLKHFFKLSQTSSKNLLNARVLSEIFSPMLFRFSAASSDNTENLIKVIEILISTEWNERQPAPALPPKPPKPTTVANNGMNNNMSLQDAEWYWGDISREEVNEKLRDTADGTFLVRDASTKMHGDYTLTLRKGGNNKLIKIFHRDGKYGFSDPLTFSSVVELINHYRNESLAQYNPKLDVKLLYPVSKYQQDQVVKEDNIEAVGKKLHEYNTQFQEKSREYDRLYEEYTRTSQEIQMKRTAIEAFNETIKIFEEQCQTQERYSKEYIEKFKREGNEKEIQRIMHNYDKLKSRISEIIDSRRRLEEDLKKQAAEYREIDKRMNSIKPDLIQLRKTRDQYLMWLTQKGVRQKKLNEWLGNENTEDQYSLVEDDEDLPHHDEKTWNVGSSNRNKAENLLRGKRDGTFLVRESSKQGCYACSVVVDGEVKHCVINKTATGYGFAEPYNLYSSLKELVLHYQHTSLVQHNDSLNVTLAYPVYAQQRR
PI3-kinase p110-delta/p85-alpha, sequence (O00329 whole entry): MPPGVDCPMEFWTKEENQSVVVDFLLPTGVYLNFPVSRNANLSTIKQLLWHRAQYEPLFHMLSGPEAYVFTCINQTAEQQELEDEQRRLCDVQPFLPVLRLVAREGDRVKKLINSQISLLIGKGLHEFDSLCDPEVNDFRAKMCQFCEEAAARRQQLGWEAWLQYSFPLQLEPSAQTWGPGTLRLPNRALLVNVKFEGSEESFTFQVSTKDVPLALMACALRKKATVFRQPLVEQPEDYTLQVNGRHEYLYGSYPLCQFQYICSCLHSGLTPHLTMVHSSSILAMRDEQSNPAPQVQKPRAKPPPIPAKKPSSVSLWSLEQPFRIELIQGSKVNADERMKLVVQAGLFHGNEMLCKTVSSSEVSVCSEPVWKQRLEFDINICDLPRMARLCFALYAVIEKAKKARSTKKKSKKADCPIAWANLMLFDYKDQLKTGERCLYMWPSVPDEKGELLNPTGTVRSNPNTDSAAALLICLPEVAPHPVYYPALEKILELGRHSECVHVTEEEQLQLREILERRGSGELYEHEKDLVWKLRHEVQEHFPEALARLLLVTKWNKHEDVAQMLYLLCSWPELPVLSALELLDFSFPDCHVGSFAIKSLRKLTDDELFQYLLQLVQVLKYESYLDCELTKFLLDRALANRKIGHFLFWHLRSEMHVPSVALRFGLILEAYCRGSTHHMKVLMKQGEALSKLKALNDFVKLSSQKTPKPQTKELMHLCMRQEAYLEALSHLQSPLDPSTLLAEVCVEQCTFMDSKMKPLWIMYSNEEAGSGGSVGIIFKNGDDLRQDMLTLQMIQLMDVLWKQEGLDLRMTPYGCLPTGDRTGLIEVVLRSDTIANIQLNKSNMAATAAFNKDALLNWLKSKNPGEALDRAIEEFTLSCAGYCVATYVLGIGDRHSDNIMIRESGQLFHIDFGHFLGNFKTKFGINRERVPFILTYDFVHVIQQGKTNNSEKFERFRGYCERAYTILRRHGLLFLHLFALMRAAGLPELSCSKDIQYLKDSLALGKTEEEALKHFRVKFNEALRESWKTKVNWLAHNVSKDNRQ

In another test the target is PI3K p110 beta/p85 alpha (Homo sapiens, UniProt P42338). The test is described as follows: Inhibition of N-terminal His6-tagged recombinant full-length human p110beta/untagged recombinant full length p85alpha expressed in baculovirus infected Sf21 cells using phosphatidylinositol as substrate in presence of gamma-32P-ATP after 5 mins by thin layer chromatographic method.
PI3K p110 beta/p85 alpha, sequence (P27986 whole entry): as the sequence (P27986 whole entry) above
PI3K p110 beta/p85 alpha, sequence (P42338 whole entry): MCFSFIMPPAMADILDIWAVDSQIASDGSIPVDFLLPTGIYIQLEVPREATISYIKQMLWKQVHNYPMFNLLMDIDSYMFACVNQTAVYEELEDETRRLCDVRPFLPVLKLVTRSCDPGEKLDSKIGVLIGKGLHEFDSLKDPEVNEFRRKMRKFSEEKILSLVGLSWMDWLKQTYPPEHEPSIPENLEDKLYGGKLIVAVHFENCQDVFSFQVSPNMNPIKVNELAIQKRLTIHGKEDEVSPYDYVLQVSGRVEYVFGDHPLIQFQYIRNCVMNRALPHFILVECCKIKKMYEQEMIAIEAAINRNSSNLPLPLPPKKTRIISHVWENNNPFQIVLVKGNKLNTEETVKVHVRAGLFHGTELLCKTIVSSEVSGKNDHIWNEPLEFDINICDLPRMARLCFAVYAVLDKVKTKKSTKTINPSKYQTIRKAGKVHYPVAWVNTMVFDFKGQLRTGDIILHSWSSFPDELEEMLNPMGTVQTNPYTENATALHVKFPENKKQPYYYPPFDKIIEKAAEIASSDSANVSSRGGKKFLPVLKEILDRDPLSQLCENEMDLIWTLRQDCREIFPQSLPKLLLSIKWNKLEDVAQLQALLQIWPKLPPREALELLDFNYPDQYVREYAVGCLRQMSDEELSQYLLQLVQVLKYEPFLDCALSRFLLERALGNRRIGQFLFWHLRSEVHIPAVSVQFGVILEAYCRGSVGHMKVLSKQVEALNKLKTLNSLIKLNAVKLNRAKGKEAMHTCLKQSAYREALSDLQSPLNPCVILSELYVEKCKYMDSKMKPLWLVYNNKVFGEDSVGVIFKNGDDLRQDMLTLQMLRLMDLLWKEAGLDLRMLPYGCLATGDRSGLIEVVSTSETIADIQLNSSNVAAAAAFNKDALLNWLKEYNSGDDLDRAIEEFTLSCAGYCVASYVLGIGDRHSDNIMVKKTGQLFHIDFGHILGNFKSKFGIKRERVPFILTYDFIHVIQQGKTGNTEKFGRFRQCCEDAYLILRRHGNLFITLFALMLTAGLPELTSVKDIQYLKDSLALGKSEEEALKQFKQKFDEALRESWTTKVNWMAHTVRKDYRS

PI3-kinase p110-alpha/p85-alpha, sequence (P27986 whole entry): as the sequence (P27986 whole entry) above
PI3-kinase p110-alpha/p85-alpha, sequence (P42336 whole entry): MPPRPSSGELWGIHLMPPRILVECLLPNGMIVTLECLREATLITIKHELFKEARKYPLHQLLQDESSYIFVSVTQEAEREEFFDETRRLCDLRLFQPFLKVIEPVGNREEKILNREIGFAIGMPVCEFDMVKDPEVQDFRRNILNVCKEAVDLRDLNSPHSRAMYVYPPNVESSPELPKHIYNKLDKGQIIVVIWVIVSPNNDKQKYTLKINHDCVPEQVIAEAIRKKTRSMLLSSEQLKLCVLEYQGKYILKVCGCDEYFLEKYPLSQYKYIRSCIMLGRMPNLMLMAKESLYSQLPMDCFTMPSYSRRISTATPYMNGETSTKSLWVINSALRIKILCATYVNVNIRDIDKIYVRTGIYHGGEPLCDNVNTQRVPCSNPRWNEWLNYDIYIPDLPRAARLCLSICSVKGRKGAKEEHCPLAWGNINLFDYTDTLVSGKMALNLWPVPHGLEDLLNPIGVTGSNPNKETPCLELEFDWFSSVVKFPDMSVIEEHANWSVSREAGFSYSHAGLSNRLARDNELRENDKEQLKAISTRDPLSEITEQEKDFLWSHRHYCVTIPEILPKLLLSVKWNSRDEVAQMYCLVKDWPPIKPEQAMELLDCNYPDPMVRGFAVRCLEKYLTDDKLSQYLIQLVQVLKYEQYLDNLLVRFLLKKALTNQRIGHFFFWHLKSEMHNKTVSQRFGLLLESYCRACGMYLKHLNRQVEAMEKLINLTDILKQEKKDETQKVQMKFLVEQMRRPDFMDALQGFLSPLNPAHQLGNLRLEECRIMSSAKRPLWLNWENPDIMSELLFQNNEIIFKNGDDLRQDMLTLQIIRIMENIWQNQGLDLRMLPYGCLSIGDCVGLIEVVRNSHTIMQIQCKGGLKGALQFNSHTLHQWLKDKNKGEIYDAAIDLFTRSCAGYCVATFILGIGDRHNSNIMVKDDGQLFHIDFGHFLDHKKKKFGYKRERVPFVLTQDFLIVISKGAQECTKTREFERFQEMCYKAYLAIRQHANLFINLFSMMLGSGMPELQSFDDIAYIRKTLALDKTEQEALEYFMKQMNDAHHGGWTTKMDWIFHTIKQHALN

One may read the IC50 as the concentration needed to halve the response being measured. Broadly, the EC50 is the concentration needed to bring the measured effect to its halfway point. Turning to `Cc1cccc2cc(Cn3nc(C#C[C@@H](C)O)c4c(N)ncnc43)n(C(C)C)c(=O)c12`, the 50% inhibitory concentration (IC50) in test [1] is over 10 µM; in test [3], under 10 µM; in test [4] it was under 0.1 µM; at PI3K p110 beta/p85 alpha, under 10 µM. Further, the EC50 in test [2] was under 1 µM.
Regarding `COc1ccccc1-n1c(Cn2nc(I)c3c(N)ncnc32)cc2cccc(C)c2c1=O`, the IC50 is over 10 µM in test [1], under 1 µM in test [3], under 0.1 µM in test [4] and over 10 µM on PI3K p110 beta/p85 alpha. In addition, the EC50 in test [2] is under 1 µM.
`Cc1cccc2cc(Cn3nc(C#C[C@@H](C)O)c4c(N)ncnc43)n(-c3ccccc3O)c(=O)c12`: the IC50 in test [1] is over 10 µM; in test [3], under 10 µM; in test [4], under 0.1 µM; at PI3K p110 beta/p85 alpha, over 10 µM. In addition, the concentration for a half-maximal effect (EC50) in test [2] is under 1 µM.
`Cc1ccccc1-n1c(Cn2nc(-c3cc(O)cc(F)c3)c3c(N)ncnc32)cc2cccc(F)c2c1=O`: the IC50 was over 10 µM in test [1], under 1 µM in test [3], under 0.1 µM in test [4] and under 10 µM on PI3K p110 beta/p85 alpha. Also, the half-maximal effective concentration (EC50) in test [2] is under 0.1 µM.
For `Cc1ccccc1-n1c(Cn2nc(C#CCO)c3c(N)ncnc32)cc2cccc(C)c2c1=O`, the half-inhibitory concentration (IC50) was over 10 µM in test [1], under 1 µM in test [3], under 0.1 µM in test [4] and over 10 µM on PI3K p110 beta/p85 alpha. Also, the EC50 in test [2] is under 1 µM.
As for `Cc1cccc2cc(Cn3nc(Br)c4c(N)ncnc43)n(-c3ccccc3F)c(=O)c12`, the IC50 in test [1] is over 10 µM; in test [3] it was under 10 µM; in test [4], under 1 µM; on PI3K p110 beta/p85 alpha it was over 10 µM. Further, the EC50 in test [2] is under 1 µM.
Consider `Cc1cccc2cc(Cn3nc(Cl)c4c(N)ncnc43)n(-c3ccccc3F)c(=O)c12`, for which the IC50 in test [1] was over 10 µM; in test [3], under 10 µM; in test [4], under 1 µM; at PI3K p110 beta/p85 alpha it was over 10 µM. Besides, in test [2], the EC50 is under 1 µM.
Turning to `Cc1cccc2cc(Cn3nc(C#C[C@@H](C)O)c4c(N)ncnc43)n(-c3ccccc3F)c(=O)c12`, the IC50 is over 10 µM in test [1], under 1 µM in test [3], under 0.1 µM in test [4] and over 10 µM at PI3K p110 beta/p85 alpha. The EC50 in test [2] is under 1 µM.
`Cc1cccc2cc(Cn3nc(C#CCO)c4c(N)ncnc43)n(-c3ccccc3F)c(=O)c12`: the half-maximal inhibitory concentration (IC50) in test [1] is over 10 µM; in test [3], under 1 µM; in test [4], under 0.1 µM; on PI3K p110 beta/p85 alpha, over 10 µM. The EC50 in test [2] was under 1 µM.
For `Cc1cccc2cc(Cn3nc(-c4cc(O)cc(F)c4)c4c(N)ncnc43)n(-c3ccccc3OCCN3CCOCC3)c(=O)c12`, the IC50 in test [1] was under 10 µM; in test [3], under 1 µM; in test [4] it was under 0.1 µM; on PI3K p110 beta/p85 alpha, under 10 µM. The EC50 in test [2] is under 0.1 µM.
`Cc1cccc2cc(Cn3nc(I)c4c(N)ncnc43)n(C)c(=O)c12`: the half-maximal inhibitory concentration (IC50) in test [1] is over 10 µM; in test [3], under 10 µM; in test [4], under 1 µM; on PI3K p110 beta/p85 alpha it was over 10 µM. Moreover, the EC50 in test [2] is under 1 µM.
For the compound `Cc1ccccc1-n1c(Cn2nc(/C=C/C(N)=O)c3c(N)ncnc32)cc2cccc(C)c2c1=O`, the IC50 is over 10 µM in test [1], under 0.1 µM in test [3], under 0.1 µM in test [4] and under 10 µM at PI3K p110 beta/p85 alpha. Also, the concentration for a half-maximal effect (EC50) in test [2] is under 0.1 µM.
In the case of `Cc1cccc2cc(Cn3nc(/C=C4/SC(=O)NC4=O)c4c(N)ncnc43)n(-c3ccccc3F)c(=O)c12`, the 50% inhibitory concentration (IC50) in test [1] is under 10 µM; in test [3], under 0.1 µM; in test [4], under 0.1 µM; at PI3K p110 beta/p85 alpha, under 10 µM. The EC50 in test [2] was under 0.1 µM.
As to `Cc1ccccc1-n1c(Cn2nc(/C=C3/SC(=O)NC3=O)c3c(N)ncnc32)cc2cccc(C)c2c1=O`, the IC50 in test [1] is under 10 µM; in test [3], under 0.1 µM; in test [4], under 0.1 µM; at PI3K p110 beta/p85 alpha, under 10 µM. Also, the EC50 in test [2] is under 0.1 µM.
With `Cc1cccc2cc(Cn3nc(I)c4c(N)ncnc43)n(C3CCC3)c(=O)c12`, the IC50 in test [1] was over 10 µM; in test [3], under 10 µM; in test [4] it was under 0.1 µM; at PI3K p110 beta/p85 alpha, over 10 µM. Moreover, in test [2], the EC50 is under 1 µM.
`Cc1cccc2cc(Cn3nc(-c4cc(O)cc(F)c4)c4c(N)ncnc43)n(C(C)C)c(=O)c12`: the IC50 was under 10 µM in test [1], under 1 µM in test [3], under 0.1 µM in test [4] and under 1 µM on PI3K p110 beta/p85 alpha. Also, the concentration giving a half-maximal response (EC50) in test [2] was under 0.1 µM.
`Cc1cccnc1-n1c(Cn2nc(C#C[C@@H](C)O)c3c(N)ncnc32)cc2cccc(C)c2c1=O`: the IC50 in test [1] is over 10 µM; in test [3], over 10 µM; in test [4] it was under 1 µM; on PI3K p110 beta/p85 alpha it was over 10 µM. In addition, the EC50 in test [2] is under 1 µM.
Regarding `Cc1cccc2cc(Cn3nc(-c4ccc(F)c(O)c4)c4c(N)ncnc43)n(-c3ccccc3F)c(=O)c12`, the IC50 in test [1] is over 10 µM; in test [3], under 1 µM; in test [4], under 0.1 µM; on PI3K p110 beta/p85 alpha, over 10 µM. Also, the EC50 in test [2] was under 1 µM.
On to `Cc1ccccc1-n1c(Cn2nc(-c3cnn(CCO)c3)c3c(N)ncnc32)cc2cccc(C)c2c1=O`, for which the half-inhibitory concentration (IC50) in test [1] is over 10 µM; in test [3] it was under 1 µM; at PI3K p110 beta/p85 alpha, over 10 µM. Further, the concentration giving a half-maximal response (EC50) in test [2] was under 1 µM.
Take `COc1ccccc1-n1c(Cn2nc(C#C[C@@H](C)O)c3c(N)ncnc32)cc2cccc(C)c2c1=O`: the IC50 in test [1] is over 10 µM; in test [3], under 1 µM; in test [4], under 0.1 µM; at PI3K p110 beta/p85 alpha it was over 10 µM. Moreover, in test [2], the EC50 was under 1 µM.
For `Cc1cccc2cc(Cn3nc(-c4cccc(F)c4)c4c(N)ncnc43)n(-c3ccccc3F)c(=O)c12`, the IC50 in test [1] is over 10 µM; in test [3] it was under 10 µM; in test [4], under 10 µM; at PI3K p110 beta/p85 alpha, over 10 µM. In addition, in test [2], the EC50 is under 10 µM.
As for `Cc1cccc2cc(Cn3nc(C#N)c4c(N)ncnc43)n(-c3ccccc3F)c(=O)c12`, the IC50 in test [1] is over 10 µM; in test [3], over 10 µM; in test [4] it was under 0.1 µM; on PI3K p110 beta/p85 alpha, over 10 µM. The EC50 in test [2] is under 1 µM.
On to `Cc1cccc2cc(Cn3nc(-c4cccc(O)c4)c4c(N)ncnc43)n(-c3ccccc3F)c(=O)c12`, for which the half-maximal inhibitory concentration (IC50) in test [1] is over 10 µM; in test [3], under 1 µM; in test [4] it was under 0.1 µM; at PI3K p110 beta/p85 alpha, over 10 µM. The 50% effective concentration (EC50) in test [2] is under 1 µM.
In the case of `Cc1cccc2cc(Cn3nc(I)c4c(N)ncnc43)n(-c3ccccc3OCCN3CCOCC3)c(=O)c12`, the concentration for half-maximal inhibition (IC50) in test [1] was over 10 µM; in test [3], under 1 µM; in test [4] it was under 0.1 µM; on PI3K p110 beta/p85 alpha, over 10 µM. For the same compound, the EC50 in test [2] was under 1 µM.
For `Cc1ccccc1-n1c(Cn2nc(C#CC3CC3)c3c(N)ncnc32)cc2cccc(C)c2c1=O`, the IC50 was over 10 µM in test [1], under 1 µM in test [3], under 1 µM in test [4] and over 10 µM at PI3K p110 beta/p85 alpha. For the same compound, in test [2], the EC50 is under 1 µM.
In the case of `Cc1ccccc1-n1c(Cn2nc(-c3cn[nH]c3)c3c(N)ncnc32)cc2ccccc2c1=O`, the IC50 in test [1] is over 10 µM; in test [3] it was under 10 µM; in test [4], under 1 µM; at PI3K p110 beta/p85 alpha, over 10 µM. Besides, in test [2], the EC50 was under 0.1 µM.
On to `Cc1ccccc1-n1c(Cn2nc(I)c3c(N)ncnc32)cc2cccc(F)c2c1=O`, for which the IC50 in test [1] was over 10 µM; in test [3], under 10 µM; in test [4], under 1 µM; at PI3K p110 beta/p85 alpha, over 10 µM. Besides, the half-maximal effective concentration (EC50) in test [2] was under 1 µM.
On to `Cc1cccnc1-n1c(Cn2nc(-c3cccc(O)c3)c3c(N)ncnc32)cc2cccc(C)c2c1=O`, for which the IC50 in test [1] is over 10 µM; in test [3], under 1 µM; in test [4], under 0.1 µM; on PI3K p110 beta/p85 alpha, over 10 µM. For the same compound, the EC50 in test [2] was under 0.1 µM.
With `C=Cc1nn(Cc2cc3cccc(C)c3c(=O)n2-c2ccccc2C)c2ncnc(N)c12`, the IC50 in test [1] is over 10 µM; in test [3], under 1 µM; in test [4], under 0.1 µM; at PI3K p110 beta/p85 alpha, over 10 µM. Further, the concentration for a half-maximal effect (EC50) in test [2] was under 0.1 µM.
On to `Cc1ccccc1-n1c(Cn2nc(-c3cccc(F)c3)c3c(N)ncnc32)cc2cccc(C)c2c1=O`, for which the IC50 is over 10 µM in test [1], under 1 µM in test [3], under 10 µM in test [4] and over 10 µM at PI3K p110 beta/p85 alpha. Besides, in test [2], the EC50 is under 1 µM.
Consider `COc1cc(-c2nn(Cc3cc4cccc(C)c4c(=O)n3-c3ccccc3F)c3ncnc(N)c23)ccc1Cl`, for which the half-maximal inhibitory concentration (IC50) in test [1] was over 10 µM; in test [3], under 1 µM; in test [4], under 10 µM; on PI3K p110 beta/p85 alpha, over 10 µM. Besides, the EC50 in test [2] was under 10 µM.
Take `Cc1ccccc1-n1c(Cn2nc(C#C[C@@H](C)O)c3c(N)ncnc32)cc2cccc(F)c2c1=O`: the IC50 in test [1] was over 10 µM; in test [3] it was over 10 µM; in test [4], under 1 µM; at PI3K p110 beta/p85 alpha, over 10 µM. Further, the EC50 in test [2] is under 10 µM.
For the compound `Cc1cccc2cc(Cn3nc(C#C[C@@H](C)O)c4c(N)ncnc43)n(C3CC3)c(=O)c12`, the IC50 was over 10 µM in test [1], under 1 µM in test [3], under 0.1 µM in test [4] and under 1 µM on PI3K p110 beta/p85 alpha. The EC50 in test [2] is under 1 µM.
